# Measured values as given in patent US6864356B2, “Sixteen amino acid of the antineoplastic protein (ANUP) as a pharmacologically active anti-tumor agent” (priority 1997, dated 2005).
# pIC50: −log10 of the molar value. Non-standard residues stand in square brackets, D forms with d. No end group written: not given here. pGlu = O=C1CC[C@@H](C(=O)O)N1
# What was measured:
# [1] = test system: human breast tumor cell line (MDA 231); test: in vitro antitumor (tumor killing) assay, neutral red dye, 96 well plates; format: cell-based; conditions: MDA 231 cells
# Procedure: The antitumor activity of the peptide (P16) was assayed against the human breast tumor cell line (MDA 231) and its activity was compared to the in vitro antitumor effect of the “pure” protein (ANUP).
# The assay for the pharmacological antitumor activities were performed as follows utilizing 96 well plates—
# 20,300-30,000 human breast tumor cells in L-15 medium (200 μl) containing 2.5% fetal calf serum and 100 μg gentamycin per ml (complete medium) were incubated at 37° in air for 120 hours; after this incubation period 50 μl of serially diluted P16 and ANUP were added to each well. […] The solutions were diluted in complete medium containing 0.05% SDS to a concentration of 350 μg per ml.
# Dilution plates were prepared as follows:
# 100 μl of complete medium were added to each well and 50 μl of diluted P16 and ANUP were added to each well in row A thus 1.3 dilution was accomplished; 50 μl were serially diluted in the 100 μl of medium in rows B through H. Thus the range of concentrations were from 6 μg to 2 mg when 50 μl each dilution series were added to the 200 μl of the complete medium containing the MDA cells. The plates were incubated for an additional 96-120 hours. The medium was poured off and after a 90-minute incubation with 50 μl neutral red dye (0.5 ml neutral red (0.25% ethanol (0.6 ml) diluted 5.5 saline-0.16 mm HCl) the cells were washed twice with PBS (phosphate buffer saline) at room temperature. The concentration of living cells (since only living cells absorb the dye) was determined after adding 100 μl lysing buffer (50% ethanol in 0.05 m NaH2 PO4) the concentration of neutral red released in each well was determined using a Dynetech plate reader set at […]. A unit of activity was defined as the concentration of ANUP and P16 for 50% killing.
# tumor cells = conditions: electron microscopy (Struve et al. 1990); cited from earlier work
substance,measurement,setting,value
"synthetic hexadeca peptide (16 L-amino acids), partial N-terminal sequence of ANUP: Pyroglu-Leu-Lys-Cys-Tyr-Thr-Cys-Lys-Glu-Pro-Met-Thr-Ser-Ala-Ala-Cys (SEQ ID NO: 1) ([pGlu]LKCYTCKEPMTSAAC; cysteine pairing not given here) [P16]",Fraction of the Activity relative to ANUP,[1]; + 0.005% SDS,0.04
same,Fraction of the Activity relative to ANUP,[1]; + 0.02% SDS,0.50
same,Fraction of the Activity relative to ANUP,[1]; + 0.05% SDS,0.50
same,antitumor activity in the absence of SDS,[1]; absence of SDS,neither the peptide nor the protein showed any antitumor activity
same,"activity compared to the protein (ANUP), molar basis",[1]; in vitro,about 50%
same,pIC50,"[1]; medium containing SDS, 96-120 hours incubation, read-out: 50% end point (concentration for 50% killing)",7.66
same,Fraction of the Activity relative to ANUP,[1]; no SDS,± no Activity
same,weight of peptide required relative to weight of protein (ANUP) for equal activity,[1]; weight basis,one tenth
same,effect on tumor cells by electron microscopy,tumor cells,complete degradation of the cells
